Laboratory results taken from PubChem BioAssay (NCI).
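A five-concentration, 48-hour dose response in 96-well plates underlies each endpoint, interpolated linearly between surrounding concentrations. At the TGI there is no net growth.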

Assays:
Test in all cases: growth of human tumour cells (NCI), 48 h
[1] = system: MOLT-4 leukemia
[2] = system: RXF 393 renal
[3] = system: COLO 205 colon
[4] = system: MALME-3M melanoma
[5] = system: RPMI-8226 leukemia
[6] = system: EKVX NSCLC
[7] = system: T-47D breast
[8] = system: TK-10 renal
[9] = system: UACC-62 melanoma
[10] = system: NCI/ADR-RES ovarian
[11] = system: NCI-H23 lung
[12] = system: LOX IMVI melanoma
[13] = system: MDA-MB-435
[14] = system: HCT-116 colon
[15] = system: SW-620 colon
[16] = system: U251 CNS
[17] = system: OVCAR-4 ovarian
[18] = system: SF-295 CNS
[19] = system: SN12C renal
[20] = system: CCRF-CEM leukemia
[21] = system: KM12 colon
[22] = system: DU-145 prostate
[23] = system: 786-0 renal
[24] = system: UACC-257 melanoma
[25] = system: SK-OV-3 ovarian
[26] = system: SF-268 CNS
[27] = system: SNB-19 CNS
[28] = system: NCI-H522 lung
[29] = system: SR leukemia
[30] = system: ACHN renal
[31] = system: HCT-15 colon
[32] = system: OVCAR-5 ovarian
[33] = system: OVCAR-3 ovarian
[34] = system: SK-MEL-28 melanoma
[35] = system: PC-3 prostate
[36] = system: MCF7 breast
[37] = system: HT29 colon
[38] = system: A549 NSCLC
[39] = system: M14 melanoma
[40] = system: CAKI-1 renal
[41] = system: MDA-N
[42] = system: HS 578T breast
[43] = system: SNB-75 CNS
[44] = system: UO-31 renal
[45] = system: OVCAR-8 ovarian
[46] = system: HL-60(TB) leukemia
[47] = system: NCI-H226 lung
[48] = system: SF-539 CNS
[49] = system: SK-MEL-5 melanoma
[50] = system: BT-549 breast
[51] = system: HCC-2998 colon
[52] = system: A498 renal
[53] = system: NCI-H460 lung
[54] = system: SK-MEL-2 melanoma
[55] = system: IGROV1 ovarian
[56] = system: MDA-MB-231 breast
[57] = system: HOP-92 NSCLC
[58] = system: K-562 leukemia

With `COc1ccc(N2C(=O)C(=O)C3(CCCCC3)C2=O)c(OC)c1OC` the TGI [1] was greater than 100 µM, the TGI [2] was greater than 100 µM and the TGI [3] was greater than 100 µM. It also gave a TGI [4] greater than 100 µM, a TGI [5] greater than 100 µM and a TGI [6] greater than 100 µM. The TGI [7] was greater than 100 µM, the TGI [8] was greater than 100 µM and the TGI [9] was greater than 100 µM. It also gave a TGI [10] greater than 100 µM, a TGI [11] greater than 100 µM and a TGI [12] greater than 100 µM. It also gave a TGI [13] greater than 100 µM, a TGI [14] greater than 100 µM and a TGI [15] greater than 100 µM. It also gave a TGI [16] greater than 100 µM, a TGI [17] greater than 100 µM and a TGI [18] greater than 100 µM. The TGI [19] was greater than 100 µM, the TGI [20] was greater than 100 µM and the TGI [21] was greater than 100 µM. It also gave a TGI [22] greater than 100 µM, a TGI [23] greater than 100 µM and a TGI [24] greater than 100 µM. For the same compound, the TGI [25] was greater than 100 µM, the TGI [26] was greater than 100 µM and the TGI [27] was greater than 100 µM. The TGI [28] was greater than 100 µM, the TGI [29] was greater than 100 µM and the TGI [30] was greater than 100 µM. For the same compound, the TGI [31] was greater than 100 µM, the TGI [32] was greater than 100 µM and the TGI [33] was greater than 100 µM. It also gave a TGI [34] greater than 100 µM, a TGI [35] greater than 100 µM and a TGI [36] greater than 100 µM. For the same compound, the TGI [37] was greater than 100 µM, the TGI [38] was greater than 100 µM and the TGI [39] was greater than 100 µM. For the same compound, the TGI [40] was greater than 100 µM, the TGI [41] was greater than 100 µM and the TGI [42] was greater than 100 µM. For the same compound, the TGI [43] was greater than 100 µM, the TGI [44] was greater than 100 µM and the TGI [45] was greater than 100 µM. For the same compound, the TGI [46] was greater than 100 µM, the TGI [47] was greater than 100 µM and the TGI [48] was greater than 100 µM. It also gave a TGI [49] greater than 100 µM and a TGI [50] greater than 100 µM.
`O=C(CBr)NCCc1c[nH]c2ccccc12` was tested, and the TGI [1] was 1.92 µM, the TGI [2] was 2.41 µM and the TGI [3] was 3.19 µM. The TGI [4] was 9.41 µM, the TGI [5] was 4.31 µM and the TGI [6] was 3.72 µM. For the same compound, the TGI [8] was 3.37 µM, the TGI [9] was 3.29 µM and the TGI [10] was 6.96 µM. The TGI [11] was 3.19 µM, the TGI [51] was 24.9 µM and the TGI [12] was 2.79 µM. For the same compound, the TGI [13] was 3.34 µM, the TGI [14] was 3.15 µM and the TGI [15] was 7.71 µM. It also gave a TGI [16] of 3.53 µM, a TGI [52] of 41.2 µM and a TGI [17] of 4 µM. For the same compound, the TGI [18] was 28.6 µM, the TGI [53] was 15 µM and the TGI [54] was 4.16 µM. For the same compound, the TGI [19] was 2.65 µM, the TGI [20] was 0.552 µM and the TGI [21] was 3.85 µM. It also gave a TGI [55] of 4.22 µM, a TGI [22] of 4.19 µM and a TGI [23] of 2.74 µM. For the same compound, the TGI [24] was 8.54 µM, the TGI [25] was 7.31 µM and the TGI [56] was 4.49 µM. It also gave a TGI [26] of 7.59 µM, a TGI [27] of 20 µM and a TGI [28] of 0.458 µM. The TGI [29] was 1 µM, the TGI [30] was 3.2 µM and the TGI [31] was 4.36 µM. For the same compound, the TGI [32] was 3.47 µM, the TGI [33] was 4.09 µM and the TGI [34] was 11.3 µM. For the same compound, the TGI [35] was 4.03 µM, the TGI [36] was 4.72 µM and the TGI [37] was 3.51 µM. It also gave a TGI [39] of 3.24 µM, a TGI [40] of 1.91 µM and a TGI [41] of 4.44 µM. It also gave a TGI [57] of 4.88 µM, a TGI [42] of 42.2 µM and a TGI [43] of 3.12 µM. The TGI [44] was 3.2 µM, the TGI [45] was greater than 48.3 µM and the TGI [46] was 3.69 µM. The TGI [47] was 2.64 µM, the TGI [48] was 3.52 µM and the TGI [58] was 8.41 µM. It also gave a TGI [49] of 2.46 µM and a TGI [50] of 3.83 µM.
